Some test systems named below: HCT-15; NCI-H226; COLO 205; K562; HT-29; SF-295; CAKI-1; UACC-62; SK-MEL-5; SK-OV-3; A498; SNB-19; OVCAR-4; SK-MEL-2; UO-31; CCRF-CEM; DU-145; NCI/ADR-RES; MOLT-4; MCF7.
Common to all, as to experiment: NCI anticancer screen, dose series, 48 h

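Test compounds were applied to cells in 96-well plates for 48 hours at 5 doses. The concentration for 50% growth inhibition is given as GI50.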 Activity calls are given as the source filed them. Rule as the data show it: active = GI50 up to about 1.1 µM and inactive = higher.

Regarding `COc1ccc(/C(=N\NC(=S)NN)C(c2ccc(OC)cc2)C2C(=O)Oc3ccccc32)cc1` (stereo not drawn), the GI50 in the assay on HCT-15 is greater than 10 µM; with NCI-H226, > 10 µM (inactive); in the assay with COLO 205, > 10 µM (inactive); in the assay on K562, > 10 µM (inactive); with HT-29, > 10 µM (inactive); in the assay on SF-295 it was > 10 µM (inactive). Also, the GI50 in the assay on CAKI-1, in the assay with UACC-62, in the assay on SK-MEL-5, in the assay with SK-OV-3, in the assay on A498 and in the assay on SNB-19 was > 10 µM (inactive) in each case. The GI50 was > 10 µM (inactive) in the assay on OVCAR-4, > 10 µM (inactive) with SK-MEL-2, > 10 µM (inactive) with UO-31 and 64.9 µM (inactive) in the assay with CCRF-CEM.

For `CNC(=O)/C(C#N)=C(\N)N1CCCC1`, the GI50 with HCT-15 was greater than 100 µM; in the assay on NCI-H226, > 100 µM (inactive); in the assay on COLO 205, > 100 µM (inactive); with K562, > 100 µM (inactive); in the assay on HT-29, > 100 µM (inactive); with CAKI-1 it was > 100 µM (inactive). In addition, the GI50 in the assay on UACC-62, in the assay with SK-MEL-5, with SK-OV-3, in the assay on A498, with SNB-19 and in the assay on DU-145 was > 100 µM (inactive) each time. Also, the GI50 in the assay with NCI/ADR-RES, in the assay with SK-MEL-2, with UO-31, in the assay on CCRF-CEM and in the assay with MOLT-4 was > 100 µM (inactive) throughout.

Turning to `COc1cccc(/C(Cl)=C(\C=O)c2cccc(OC)c2)c1`, the GI50 is 5.6 µM with HCT-15; 11 µM (inactive) in the assay on NCI-H226; 11.9 µM (inactive) in the assay on COLO 205; 4.06 µM (inactive) in the assay on K562; 12.3 µM (inactive) in the assay with HT-29; 12.2 µM (inactive) with SF-295. For the same compound, the GI50 was 39 µM (inactive) with CAKI-1; 4.43 µM (inactive) in the assay with UACC-62; 11.5 µM (inactive) in the assay with SK-MEL-5; 20 µM (inactive) in the assay on SK-OV-3; 19.3 µM (inactive) in the assay with A498; 11.3 µM (inactive) with SNB-19. The GI50 in the assay with OVCAR-4 was 13.8 µM (inactive); in the assay on SK-MEL-2, 15.4 µM (inactive); with UO-31, 13 µM (inactive); in the assay on CCRF-CEM, 3.97 µM (inactive); in the assay with MOLT-4 it was 7.74 µM (inactive).

`COC1(OC)CCC2C1C1CCC(OC)(OC)C21` (stereo not drawn): the GI50 in the assay on HCT-15 is greater than 50 µM; in the assay with NCI-H226 it was > 50 µM (inactive); with COLO 205, > 50 µM (inactive); in the assay with K562, > 50 µM (inactive); in the assay on HT-29, > 50 µM (inactive); in the assay on SF-295, > 50 µM (inactive). Besides, the GI50 in the assay on CAKI-1, in the assay with UACC-62, in the assay with SK-MEL-5, in the assay on SK-OV-3, in the assay with A498 and with SNB-19 was > 50 µM (inactive) each time. Besides, the GI50 with OVCAR-4, in the assay with SK-MEL-2, in the assay with UO-31, in the assay with CCRF-CEM and in the assay with MOLT-4 was > 50 µM (inactive) throughout.

Turning to `Clc1ccc(-c2ccc(-c3nn4c(CNc5ccccc5)nnc4s3)o2)c(Cl)c1`, the GI50 in the assay with HCT-15 was 48.1 µM; in the assay with NCI-H226 it was 97.3 µM (inactive); with COLO 205, 28 µM (inactive); in the assay on K562 it was 43.7 µM (inactive); in the assay with HT-29 it was 40.1 µM (inactive); in the assay with SF-295, 60.1 µM (inactive). In addition, the GI50 with CAKI-1 was > 100 µM (inactive); in the assay with SK-MEL-5, 33.4 µM (inactive); in the assay with SK-OV-3, > 100 µM (inactive); in the assay on A498, > 100 µM (inactive); with SNB-19, > 100 µM (inactive); with OVCAR-4, > 100 µM (inactive). For the same compound, the GI50 was > 100 µM (inactive) in the assay on DU-145; 81.7 µM (inactive) with NCI/ADR-RES; 90.4 µM (inactive) with SK-MEL-2; > 100 µM (inactive) with UO-31; 46.7 µM (inactive) in the assay with CCRF-CEM; 24 µM (inactive) in the assay on MOLT-4.

For the compound `CC1CC(N)=Nc2ccccc2N1` (stereo not drawn), the GI50 with HCT-15 was greater than 100 µM; in the assay with NCI-H226 it was > 100 µM (inactive); with COLO 205, > 100 µM (inactive); in the assay with K562, > 100 µM (inactive); in the assay with HT-29 it was > 100 µM (inactive); with SF-295 it was > 100 µM (inactive). Further, the GI50 with CAKI-1, with UACC-62, with SK-MEL-5, in the assay with SK-OV-3, in the assay with SNB-19 and in the assay on OVCAR-4 was > 100 µM (inactive) throughout. Besides, the GI50 in the assay with DU-145, with NCI/ADR-RES, in the assay with SK-MEL-2, in the assay on UO-31, in the assay on CCRF-CEM and in the assay on MOLT-4 was > 100 µM (inactive) throughout.

For `CCOC(=O)c1sc2nc1CSc1sc(=S)sc1SCc1nc(sc1C(=O)OCC)-c1nc(c(C(=O)OCC)s1)CSc1sc(=S)sc1SCc1nc-2sc1C(=O)OCC`, the GI50 in the assay on HCT-15 is greater than 10 µM; in the assay on MCF7 it was > 10 µM (inactive); with COLO 205, > 10 µM (inactive); in the assay on K562, > 10 µM (inactive); in the assay on HT-29, > 10 µM (inactive); in the assay on SF-295, > 10 µM (inactive). In addition, the GI50 in the assay with CAKI-1, with UACC-62, in the assay with SK-MEL-5, with SK-OV-3, in the assay with SNB-19 and in the assay on OVCAR-4 was > 10 µM (inactive) throughout. Also, the GI50 in the assay on NCI/ADR-RES, with SK-MEL-2, with UO-31, in the assay with CCRF-CEM and with MOLT-4 was > 10 µM (inactive) each time.

Turning to `CN(C)C(=S)/N=c1\ssc(=S)n1Cc1cccnc1`, the GI50 with HCT-15 is 1.23 µM; in the assay with NCI-H226, > 55.6 µM (inactive); in the assay with MCF7 it was 2.91 µM (inactive); with COLO 205 it was 2.2 µM (inactive); with K562 it was 1.12 µM (active); in the assay on HT-29 it was 1.66 µM (inactive). The GI50 in the assay on SF-295 was 1.81 µM (inactive); in the assay with CAKI-1, 3.16 µM (inactive); in the assay on UACC-62 it was 2.17 µM (inactive); in the assay with SK-MEL-5, 1.67 µM (inactive); with SK-OV-3, 4.36 µM (inactive); with A498, 10.1 µM (inactive). Besides, the GI50 in the assay on SNB-19 was 5.15 µM (inactive); with OVCAR-4, 19.3 µM (inactive); with NCI/ADR-RES it was 1.01 µM (active); with SK-MEL-2, 2.29 µM (inactive); in the assay with UO-31 it was 13.1 µM (inactive); in the assay with CCRF-CEM, 8.53 µM (inactive). The GI50 with MOLT-4 is 6.46 µM (inactive).

Turning to `COC12CCC(C(C(=O)c3ccccc3)=C1C(=O)c1ccccc1)C(O)C2` (stereo not drawn), the GI50 in the assay on HCT-15 was greater than 100 µM; in the assay with NCI-H226 it was > 100 µM (inactive); in the assay with COLO 205, > 100 µM (inactive); in the assay on K562 it was > 100 µM (inactive); in the assay with HT-29, > 100 µM (inactive); in the assay on SF-295 it was > 100 µM (inactive). Moreover, the GI50 is > 100 µM (inactive) in the assay with CAKI-1; > 100 µM (inactive) in the assay with UACC-62; > 100 µM (inactive) in the assay on SK-MEL-5; > 100 µM (inactive) in the assay on SK-OV-3; 67.3 µM (inactive) in the assay with A498; > 100 µM (inactive) in the assay with SNB-19. For the same compound, the GI50 with OVCAR-4, with SK-MEL-2, with UO-31, in the assay with CCRF-CEM and in the assay with MOLT-4 was > 100 µM (inactive) each time.

With `CC(=O)OCC1OC(n2ccc(=O)[nH]c2=O)C(OC(C)=O)C(OC(C)=O)C1OC(C)=O` (stereo not drawn), the GI50 in the assay with HCT-15 was greater than 100 µM; in the assay on NCI-H226, 9.16 µM (inactive); in the assay on COLO 205, > 100 µM (inactive); in the assay with K562, > 100 µM (inactive); in the assay on HT-29 it was > 100 µM (inactive); with SF-295 it was > 100 µM (inactive). In addition, the GI50 with CAKI-1, in the assay with UACC-62, with SK-MEL-5, in the assay on SK-OV-3, in the assay with A498 and in the assay with SNB-19 was > 100 µM (inactive) each time. For the same compound, the GI50 with OVCAR-4 is > 100 µM (inactive); in the assay with SK-MEL-2, > 100 µM (inactive); in the assay on UO-31 it was > 100 µM (inactive); in the assay with CCRF-CEM, > 100 µM (inactive); in the assay with MOLT-4 it was > 10 µM (inactive).

With `CCCCN(CCCC)C(=O)C(=O)CC(=O)c1ccc(Br)cc1`, the GI50 in the assay with HCT-15 is greater than 100 µM; with NCI-H226, > 100 µM (inactive); in the assay on COLO 205 it was > 100 µM (inactive); in the assay with K562, > 100 µM (inactive); in the assay with HT-29, > 100 µM (inactive); with SF-295, > 100 µM (inactive). In addition, the GI50 with CAKI-1, in the assay with UACC-62, in the assay on SK-MEL-5, in the assay with SK-OV-3, in the assay with A498 and in the assay with SNB-19 was > 100 µM (inactive) each time. Besides, the GI50 in the assay with OVCAR-4, with SK-MEL-2, in the assay on UO-31, in the assay with CCRF-CEM and with MOLT-4 was > 100 µM (inactive) each time.

`Cn1cnc([N+](=O)[O-])c1Sc1nc(N)nc2c1ncn2C1OC(CO)C(O)C1O` (stereo not drawn): the GI50 in the assay with HCT-15 is 6.84 µM; in the assay with NCI-H226, 15.8 µM (inactive); with COLO 205, 7.83 µM (inactive); in the assay with K562, 5.13 µM (inactive); in the assay with HT-29 it was 6.27 µM (inactive); in the assay with SF-295, 3.46 µM (inactive). In addition, the GI50 in the assay on CAKI-1 was 6.19 µM (inactive); with UACC-62 it was 2.53 µM (inactive); in the assay with SK-MEL-5, 6.22 µM (inactive); in the assay with SK-OV-3, 3.48 µM (inactive); in the assay on SNB-19 it was 44.6 µM (inactive); in the assay on OVCAR-4, 16.4 µM (inactive). Further, the GI50 with DU-145 is 2.36 µM (inactive); with NCI/ADR-RES it was 0.182 µM (active); in the assay with SK-MEL-2 it was 0.497 µM (active); with UO-31, 5.12 µM (inactive); with CCRF-CEM, 3.15 µM (inactive); with MOLT-4 it was 5 µM (inactive).
